The test system of assay [1] is Enterococcus faecium DSM 20477 (ATCC 19434). Kind of assay: Anti-bacterial bouillon microdilution assay (MIC), bacterium C. It is filed as cell-based. As to conditions: Enterococcus faecium DSM 20477, 24 h. The method, then: (§1) Selected compounds of the invention were tested in a bouillon microdilution assay method according to the DIN 58940 (www.din.de) guidelines for determination of susceptibility of bacterial strains with regard to cell growth inhibition. The assay method quantifies bacterial cell growth which corresponds to the turbidity of the liquid culture medium by photometric measurement carried out at 595 nm.
(§2) The method of MIC determination was performed according to DIN 58940-5. The volumina were adapted according to the microdilution method as described in DIN 58940-7 guideline.
Dependent on water solubility, compounds of the invention were dissolved either in water or ethanol in a concentration of 10 mg/ml. Subsequently, the stock was further diluted in water to a concentration of 512 μg/ml. The following serial dilutions (factor 2) were performed in water resulting in the following […] testing concentrations: 256 μg/ml, 128 μg/ml, 64 μg/ml, 32 μg/ml, 16 μg/ml, 8 μg/ml, 4 μg/ml, 2 μg/ml, 1 μg/ml, 0.5 μg/ml, 0.25 μg/ml and 0.125 μg/ml. Diluted compounds of the invention were transferred in 100 μl volume to the microtiter plate wells. […]
(§3) Before and after incubation, bacterial growth was determined by photometric analysis against a positive control containing growing bacteria without compound and a sterile/negative control containing only the medium.
Background: In broth dilution the organism is exposed to a series of concentrations in liquid medium.

The test system of assay [2] is Streptococcus pneumoniae DSM 20566 (ATCC 33400). Kind of assay: Anti-bacterial bouillon microdilution assay (MIC), bacterium A. The class given is cell-based. As to conditions: Streptococcus pneumoniae DSM 20566, 24 h. On the procedure: as §1, §2
(§4) Dependent on water solubility, compounds of the invention were dissolved either in water or ethanol in a concentration of 10 mg/ml. Subsequently, the stock was further diluted in water to a concentration of 512 μg/ml. The following serial dilutions (factor 2) were performed in water resulting in the following […] testing concentrations: 256 μg/ml, 128 μg/ml, 64 μg/ml, 32 μg/ml, 16 μg/ml, 8 μg/ml, 4 μg/ml, 2 μg/ml, 1 μg/ml, 0.5 μg/ml, 0.25 μg/ml and 0.125 μg/ml. Diluted compounds of the invention were transferred in 100 μl volume to the microtiter plate wells.
(§5) Pre-cultures of bacteria were grown in appropriate liquid media (refer to ATCC webpage, www.atcc.org) and afterwards were inoculated in corresponding liquid medium. 100 μl of the inoculums [adjusted to an amount of app. 1×10^6 microorganisms per ml (range of 10^5-10^8 microorganisms per ml)] were added to each of the testing compound concentrations and cultivated under the appropriate conditions.
as §3

The subject of assay [3] is Bacteroides fragilis DSM 2151 (ATCC 25285). Kind of assay: Anti-bacterial bouillon microdilution assay (MIC), bacterium E. The note with it: anaerob, 24 h. It is filed as cell-based. Put shortly: (§6)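 Broth microdilution MIC per DIN 58940-5/-7. Twofold compound dilutions in water spanned 256 to 0.125 μg/ml in the test concentration series, with inocula of about 1×10^6 organisms/ml in strain-appropriate media. Growth was read as turbidity at 595 nm before and after incubation, against growth and sterile controls.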

Assay [4] relates to Moraxella catarrhalis DMS 11994 (ATCC 43617). In words: Anti-bacterial bouillon microdilution assay (MIC), bacterium D. The class given is cell-based. Summed up:
as §6

For assay [5], the system named is Streptococcus pneumoniae DSM 11967 (ATCC 49619). In words: Anti-bacterial bouillon microdilution assay (MIC), bacterium B. It is filed as cell-based. As to conditions: Streptococcus pneumoniae DSM 11967, 24 h. The method, then:
as §1, §2, §4, §5, §3

Assay [6] concerns PC3, RKOp21 and SKOV-3 cell lines. Kind of assay: XTT cytotoxicity assay, mean over all three cell lines. It is filed as cell-based, human. As to conditions: mean value over all three cell lines. Summed up:
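Cells had 2 days of continuous compound exposure, then 3 h with XTT-PMS at 37 °C, 5% CO2 to form formazan from living cells. The value is % inhibition of cell growth, averaged over PC3, RKOp21 and SKOV-3.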

Assay [7] deals with Cryptococcus neoformans ATCC 90112. In words: Anti-fungal broth microdilution (MIC), fungus H. It is filed as cell-based. As to conditions: yeast protocol, more than 80% inhibition, 48 h. On the procedure: (§7) Anti-fungal activity of selected compounds of the invention was assessed by means of anti-fungal susceptibility tests as follows.
(§8) The antifungal activities of the compounds of the invention against different fungi were measured according to standard broth microdilution methods of the US National Committee for Clinical Laboratory standards (NCCLS) for yeasts (NCCLS document M27-A, 1997) and filamentous fungi (NCCLS document M38-A, 2002).
(§9) Stock solutions of compounds of the invention were freshly prepared on the days of experiments equal to 1.28 mg/10 ml media. Serial dilutions were performed to achieve the following testing concentrations: 64 μg/ml, 32 μg/ml, 16 μg/ml, 8 μg/ml, 4 μg/ml, 2 μg/ml, 1 μg/ml, 0.5 μg/ml, 0.25 μg/ml and 0.125 μg/ml.
(§10) An inoculum of 10^6 CFU/ml of the fungi strain was prepared in the appropriate medium and transferred to test tubes for incubation.
(§11) The method is used to determine the minimum inhibitory concentrations (MIC) of drugs on fungi strains. […] For the filamentous fungi protocol, MIC determination took place after 48 to 72 h of culture at 35° C. and was defined at that concentration which produced more than 50% visible growth inhibition.

Assay [8] relates to Candida albicans ATCC 90028. In words: Anti-fungal broth microdilution (MIC), fungus E. The class given is cell-based. The note with it: yeast protocol, more than 80% inhibition, 48 h. The method, then:
as §7, §8, §9, §10, §11

The subject of assay [9] is Aspergillus fumigatus ATCC 204305. Kind of assay: Anti-fungal broth microdilution (MIC), fungus A. The class given is cell-based. As to conditions: filamentous protocol, more than 50% growth inhibition, 48 to 72 h. The method, then: as §7, §8, §9, §10, §11
Assay [10] concerns Candida parapsilosis ATCC 22019. In words: Anti-fungal broth microdilution (MIC), fungus G. It is filed as cell-based. The note with it: yeast protocol, more than 80% inhibition, 48 h. On the procedure:
as §7, §8, §9, §10, §11

Assay [11] concerns Aspergillus fumigatus 040-200167. Kind of assay: Anti-fungal broth microdilution (MIC), fungus C. The class given is cell-based. As to conditions: filamentous protocol, more than 50% growth inhibition, 48 to 72 h. On the procedure: as §7, §8, §9, §10, §11
Assay [12] has as its system Candida albicans ATCC 10231. Kind of assay: Anti-fungal broth microdilution (MIC), fungus D. The class given is cell-based. The note with it: yeast protocol, more than 80% inhibition, 48 h. On the procedure: as §7, §8, §9, §10, §11
Assay [13] deals with Cryptococcus neoformans H99. Kind of assay: Anti-fungal broth microdilution (MIC), fungus I. It is filed as cell-based. The note with it: yeast protocol, more than 80% inhibition, 48 h. On the procedure: as §7, §8, §9, §10, §11

For orientation: MIC means the least concentration at which growth counts as inhibited.

Converted amounts (≈) assume the structure as drawn. A value given as a limit tells only on which side of the number the result lay.

`CCCCCCCCCCCCCCCCOP(=O)([O-])OCC[N+](C)(C)C` [miltefosine, hexadecylphosphocholine, reference compound]: the MIC in assay [1] was 32 µg/mL (≈ 78.5 µM); in assay [2] it was 128 µg/mL (≈ 314 µM); in assay [3], more than 256 µg/mL; in [4] (ATCC43617, 24 h), 16 µg/mL (≈ 39.3 µM); in [5] it was 128 µg/mL (≈ 314 µM). In addition, in assay [6], the “Mean % INH” value came to 68.7%.
`CCCCCCCCCCCCCCCCOP(=O)([O-])OCC[N+]1(C)CCCCC1` [Compound 2, Phosphoric acid hexadecyl ester 2-(1-methyl-piperidin-1-yl)-ethyl ester]: the “MIC, bacterium A” value in assay [2] stood at 8 µg/mL (≈ 17.9 µM). For the same molecule, in [7], the “MIC, fungus H” value was 1.5 µg/mL (≈ 3.35 µM). For the same molecule, the “MIC, fungus E” value in [8] was 1 µg/mL (≈ 2.23 µM). Further, the “MIC, fungus A” value in assay [9] came out at 2 µg/mL (≈ 4.47 µM). In addition, in assay [10], the “MIC, fungus G” value stood at 2 µg/mL (≈ 4.47 µM). In addition, the “MIC, bacterium D” value in assay [4] (24 h) was found to be 4 µg/mL (≈ 8.94 µM). Moreover, in assay [11], the “MIC, fungus C” value was found to be 6 µg/mL (≈ 13.4 µM). Further, the “MIC, fungus D” value in [12] amounted to 1 µg/mL (≈ 2.23 µM). Moreover, the “MIC, bacterium B” value in [5] worked out at 8 µg/mL (≈ 17.9 µM). In addition, the “MIC, fungus I” value in assay [13] was determined as 1 µg/mL (≈ 2.23 µM). The “Mean % INH” value in assay [6] was 36.1%.

Values taken from patent US20070167408A1, “NOVEL ALKYL PHOSPHOLIPID DERIVATIVES WITH REDUCED CYTOTOXICITY AND USES THEREOF” (ZENTARIS GmbH, priority 2005, published 2007).
